According to PubChem BioAssay (NCI):
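Assay format: 96-well plates, 48-hour exposure. GI50 marks 50% less growth. TGI: total growth inhibition.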

Columns and labels:
Assay in all cases: NCI tumour cell line growth inhibition, 48 h
[1] = tested on: NCI-H226 lung
[2] = tested on: NCI-H23 lung
[3] = tested on: NCI-H460 lung
[4] = tested on: NCI-H522 lung
[5] = tested on: NCI/ADR-RES ovarian
[6] = tested on: OVCAR-3 ovarian
[7] = tested on: OVCAR-4 ovarian
[8] = tested on: OVCAR-5 ovarian
[9] = tested on: OVCAR-8 ovarian
[10] = tested on: PC-3 prostate
[11] = tested on: RPMI-8226 leukemia
[12] = tested on: RXF 393 renal
[13] = tested on: SF-268 CNS
[14] = tested on: SF-295 CNS
[15] = tested on: SF-539 CNS
[16] = tested on: SK-MEL-2 melanoma
[17] = tested on: SK-MEL-28 melanoma
[18] = tested on: SK-MEL-5 melanoma
[19] = tested on: SK-OV-3 ovarian
[20] = tested on: SN12C renal
[21] = tested on: SNB-19 CNS
[22] = tested on: SNB-75 CNS
[23] = tested on: SR leukemia
[24] = tested on: SW-620 colon
[25] = tested on: T-47D breast
[26] = tested on: TK-10 renal
[27] = tested on: U251 CNS
[28] = tested on: UACC-257 melanoma
[29] = tested on: UACC-62 melanoma
[30] = tested on: UO-31 renal

CN(C)c1nc(NCCNS(=O)(=O)c2ccc(C(=O)/C=C/c3ccccc3)cc2)nc(Nc2ccc(F)cc2)n1
TGI [1]: 19.8 µM
GI50 [2]: 10.1 µM
TGI [2]: 22.5 µM
GI50 [3]: 4.34 µM
TGI [3]: 16.8 µM
GI50 [4]: 5.47 µM
TGI [4]: 20.4 µM
GI50 [5]: 7.33 µM
TGI [5]: 21.1 µM
GI50 [6]: 8.59 µM
TGI [6]: 21.4 µM
GI50 [7]: 4.39 µM
TGI [7]: 23.1 µM
GI50 [8]: 13.3 µM
TGI [8]: 26.6 µM
GI50 [9]: 12.2 µM
TGI [9]: 26.4 µM
GI50 [10]: 4.39 µM
TGI [10]: 20.6 µM
GI50 [11]: 3.04 µM
TGI [11]: > 100 µM
GI50 [12]: 2.94 µM
TGI [12]: 14.6 µM
GI50 [13]: 5.65 µM
TGI [13]: 22.2 µM
GI50 [14]: 6.96 µM
TGI [14]: 19.3 µM
GI50 [15]: 12 µM
TGI [15]: 24.5 µM
GI50 [16]: 10.6 µM
TGI [16]: 24.3 µM
GI50 [17]: 10.2 µM
TGI [17]: 22.2 µM
GI50 [18]: 4.7 µM
TGI [18]: 16.9 µM
GI50 [19]: 13 µM
TGI [19]: 29.7 µM
GI50 [20]: 8.2 µM
TGI [20]: 20.7 µM
GI50 [21]: 10.4 µM
TGI [21]: 23 µM
GI50 [22]: 3.23 µM
TGI [22]: 33.4 µM
GI50 [23]: 2.58 µM
TGI [23]: 8.25 µM
GI50 [24]: 5.56 µM
TGI [24]: 20.4 µM
GI50 [25]: 3.45 µM
TGI [25]: 14.2 µM
GI50 [26]: 14.6 µM
TGI [26]: 30.9 µM
GI50 [27]: 10.4 µM
TGI [27]: 24.5 µM
GI50 [28]: 12.6 µM
TGI [28]: 27.8 µM
GI50 [29]: 6.68 µM
TGI [29]: 20.3 µM
GI50 [30]: 4.6 µM
TGI [30]: 17.2 µM
